Measurements reported in patent US20250250581A1, “HERBICIDE-RESISTANT POLYPEPTIDE AND APPLICATION THEREOF” (SHANDONG SHUNFENG BIOTECHNOLOGY CO.LTD., priority 2022, published 2025).

Columns and labels:
[1] = test system: rice YX6 mutant (OE-HIR1); experiment: Herbicide spraying of plants, YX6 mutant; type: in vivo; conditions: for rank order of resistance of the YX6 mutant (OE-HIR1) to different herbicides: comparison among herbicides sprayed
Text: (§1) In this study, the base editor mediates genetic transformation through Agrobacterium, and the recipient variety was Nipponbare (NIP). After obtaining TO transgenic plants, the genotype of the target site was identified by PCR and sequencing, and the mutant individuals were transplanted to the field and T1 generation seeds were harvested. In order to verify the resistance of the mutant to herbicides, the harvested T1 generation seeds were dehulled, disinfected, and then inoculated on ½ MS medium with different HPPD herbicides. We selected the herbicide isoxaflutole, and the final concentration was set to 400 nM, while the tolerance concentration of wild-type Nipponbare rice to isoxaflutole during the seed germination stage was about 100 nM. Seed germination and seedling growth status were observed and counted 10 days after inoculation. […] To further confirm its resistance, we transplanted the green seedlings of YX6 into the greenhouse and sprayed them with 100 μM isoxaflutole one month later. The tolerance concentration of wild-type Nipponbare rice to isoxaflutole during the seedling stage was about 40 μM.
(§2) To further confirm the relationship between gene LOC_Os02g09720 and the herbicide isoxaflutole, we designed two different sgRNA targets in the coding region of gene LOC_Os02g09720 and knocked out the gene using CRISPR/Cas9 in the wild-type Nipponbare rice and YX6 resistant rice backgrounds. After obtaining TO transgenic plants, the two target regions were sequenced, and homozygous knockout plants were selected and sprayed with herbicides together with wild-type plants and YX6 resistant plants. The concentration of isoxaflutole was set to 40 μM. The phenotype was observed two weeks later. […] We named this gene HIR1 (HPPD INHIBITOR RESISTANCE 1), and its encoded protein is HIR1 protein. The amino acid sequence is shown in SEQ ID No.1. The genotype of the wild-type Nipponbare plant is HIR1, and the knockout plant is hir1.
(§3) In order to further determine the resistance strength of rice YX6 mutant (OE-HIR1), we set up three high concentration gradients of isoxaflutole to spray it (200 μM, 400 μM, 800 µM), with wild-type Nipponbare plants (HIR1) and wild-type Nipponbare HIR1 gene knockout plants (hir1) as controls. […] The tolerance range of rice YX6 mutant (OE-HIR1) to isoxaflutole may be higher, even reaching 1200-1500 μM, while the tolerance concentration of wild-type Nipponbare plants to isoxaflutole was about 40 μM, and its resistance is estimated to be increased by 30 times.
(§4) HPPD herbicides mainly include triketones, pyrazolones, isoxazolones, diketonitriles, and benzophenones. In order to determine whether the rice YX6 mutant (OE-HIR1) is resistant to other HPPD herbicides, we selected the herbicides: mesotrione, tembotrione, an unlisted quinotrione-methyl analog (Y13287), topramezone, and pyrasulfotole, and sprayed them with wild-type Nipponbare rice as the control.

[2] = test system: wild-type Nipponbare plants (HIR1); experiment: Herbicide spraying of plants, wild-type Nipponbare; type: in vivo, rice
Text: as §1, §2, §3, §4

[3] = test system: wild-type (WT) rice plants, variety Xiushui 134; experiment: Herbicide spraying for resistance identification, wild-type Xiushui 134; type: in vivo; conditions: 50 mg/L (139 μM) spray
Method: (§5) Verifying the herbicide resistance of the above two genes (ZmHIR1 and SqHIR1): cloning these two genes, respectively, and overexpressing them in the rice variety Xiushui 134. The TO generation transgenic seedlings were sprayed with 50 mg/L (139 μM) herbicide isoxaflutole for resistance identification, and the results are shown in FIGS. 10-11.

[4] = test system: wild-type Nipponbare rice; experiment: Seed germination on ½ MS medium with isoxaflutole, wild-type Nipponbare; type: in vivo
Text: as §1

[5] = test system: transgenic plants (ZmHIR1) in rice variety Xiushui 134; experiment: Herbicide spraying of T0 transgenic seedlings overexpressing ZmHIR1; type: in vivo; conditions: 50 mg/L (139 μM) spray
Method: as §5

[6] = test system: transgenic plants (SqHIR1) in rice variety Xiushui 134; experiment: Herbicide spraying of T0 transgenic seedlings overexpressing SqHIR1; type: in vivo; conditions: 50 mg/L (139 μM) spray
Method: as §5

[7] = test system: wild-type Nipponbare HIR1 knockout plant hir1 (NIP); experiment: Herbicide spraying of plants, HIR1 knockout in wild-type background; type: in vivo, rice; conditions: 40 μM spray, two weeks later, LOC_Os02g09720 knockout in wild-type background
Text: as §2

[8] = test system: transgenic plant numbered YX6 (T1 generation seeds); experiment: Seed germination on ½ MS medium with isoxaflutole, YX6 T1 seeds; type: in vivo, rice; conditions: 400 nM in ½ MS medium, 10 days after inoculation
Text: as §1

[9] = test system: resistant plant YX6 HIR1 knockout plant hir1 (YX6); experiment: Herbicide spraying of plants, HIR1 knockout in YX6 background; type: in vivo, rice; conditions: 40 μM spray, two weeks later, LOC_Os02g09720 knockout in YX6 background
Text: as §2

[10] = 400 μM spray, YX6 mutant (OE-HIR1)

With `Cc1c(C(=O)c2cnn(C)c2O)ccc(S(C)(=O)=O)c1C1=NOCC1` [topramezone] the phenotype after spraying [1, 10] was “had no phytotoxicity and could grow normally without bleaching”, the “rank order of resistance of the YX6 mutant (OE-HIR1) to different herbicides” value (“rank order … to different herbicides” below) [1] was “sulfone pyrazone>topramezone≈tembotrione>mesotrione≈quinotrione-methyl analog” and the phenotype after spraying ([2]; 400 μM spray, wild-type plants) was “had all bleached and suffered certain phytotoxicity”.
With `CS(=O)(=O)c1ccc(C(=O)C2C(=O)CCCC2=O)c([N+](=O)[O-])c1` [mesotrione] the phenotype after spraying [1, 10] was “had no phytotoxicity and could grow normally without bleaching”, the “rank order … to different herbicides” value [1] was “sulfone pyrazone>topramezone≈tembotrione>mesotrione≈quinotrione-methyl analog” and the phenotype after spraying ([2]; 400 μM spray, wild-type plants) was “had all bleached and suffered certain phytotoxicity”.
`CS(=O)(=O)c1cc(C(F)(F)F)ccc1C(=O)c1cnoc1C1CC1` [isoxaflutole] was tested, and the phenotype after spraying ([1]; 40 μM spray, two weeks later, YX6 plants) was “not affected and grew normally”, the phenotype after spraying ([1]; 100 μM spray, after two weeks, YX6) was “not affected at all” and the phenotype after spraying ([1]; 800 μM spray, YX6 mutant (OE-HIR1)) was “could still grow normally”. For the same molecule, the “resistance increase versus wild-type Nipponbare” value ([1]; YX6 mutant (OE-HIR1) vs wild type tolerance about 40 μM, estimated) was ~30 times, the tolerance range ([1]; YX6 mutant (OE-HIR1), 'may be higher, even reaching') was 1200 to 1500 µM and the phenotype after spraying [3] was “become dwarfed, yellow, and dry”. For the same molecule, the “seed germination and seedling growth status” value ([4]; 400 nM in ½ MS medium, 10 days after inoculation, wild-type Nipponbare) was “obvious bleaching symptoms of phytotoxicity”, the “tolerance concentration during the seed germination stage” value ([4]; wild-type Nipponbare rice, seed germination stage) was “about 100 nM” and the phenotype after spraying [5] was “basically remain green, with normal plant height and good growth status”. For the same molecule, the phenotype after spraying [6] was “basically remained green, with normal plant height and good growth status”, the phenotype after spraying [7] was “bleached, withered, and died gradually” and the “seed germination and seedling growth status” value [8] was “seedlings remained green normally”. The phenotype after spraying [9] was “bleached, withered, and died gradually”, the phenotype after spraying ([2]; 40 μM spray, two weeks later, wild-type plants) was “bleaching and wilting, but still survived” and the phenotype after spraying ([2]; 100 μM spray, after two weeks, wild-type Nipponbare) was “completely bleached and withered”. For the same molecule, the “tolerance concentration during the seedling stage” value ([2]; wild-type Nipponbare, spraying) was “about 40 μM”.
For `Cc1nn(C)c(O)c1C(=O)c1ccc(C(F)(F)F)cc1S(C)(=O)=O` [pyrasulfotole], the phenotype after spraying [1, 10] was “had no phytotoxicity and could grow normally without bleaching”, the “rank order … to different herbicides” value [1] was “sulfone pyrazone>topramezone≈tembotrione>mesotrione≈quinotrione-methyl analog” and the phenotype after spraying ([2]; 400 μM spray, wild-type plants) was “had all bleached and suffered certain phytotoxicity”.
With `CS(=O)(=O)c1ccc(C(=O)C2C(=O)CCCC2=O)c(Cl)c1COCC(F)(F)F` [tembotrione] the phenotype after spraying [1, 10] was “had no phytotoxicity and could grow normally without bleaching”, the “rank order … to different herbicides” value [1] was “sulfone pyrazone>topramezone≈tembotrione>mesotrione≈quinotrione-methyl analog” and the phenotype after spraying ([2]; 400 μM spray, wild-type plants) was “had all bleached and suffered certain phytotoxicity”.
